Assay results published in doi:10.1101/2023.08.23.554426v1 (biorxiv, 2023).

Key:
Conditions in all cases: read-out: K1; phosphate buffer pH 7.6, 25 °C; stronger site of two-site fit
PfRKIP [1] = target: PfRKIP (Plasmodium falciparum, UniProt Q7KQK1, P80L)
PfRKIP [2] = target: PfRKIP (Plasmodium falciparum, UniProt Q7KQK1, S96A)
PfRKIP [3] = target: PfRKIP (Plasmodium falciparum, UniProt Q7KQK1, H92A)
PfRKIP [4] = target: T1, PfRKIP (Plasmodium falciparum, UniProt Q7KQK1); test: ITC, sequential binding model
T1 sequence (Q7KQK1 1-190): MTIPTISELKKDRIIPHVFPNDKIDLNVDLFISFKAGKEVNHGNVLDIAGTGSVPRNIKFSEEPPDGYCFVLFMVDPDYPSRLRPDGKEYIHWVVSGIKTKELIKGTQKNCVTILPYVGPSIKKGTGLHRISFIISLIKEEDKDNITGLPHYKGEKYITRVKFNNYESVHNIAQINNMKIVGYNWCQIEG

HsRKIP = HsRKIP (Homo sapiens, UniProt P30086); test: ITC, sequential binding model
Sequence of HsRKIP (P30086 whole entry): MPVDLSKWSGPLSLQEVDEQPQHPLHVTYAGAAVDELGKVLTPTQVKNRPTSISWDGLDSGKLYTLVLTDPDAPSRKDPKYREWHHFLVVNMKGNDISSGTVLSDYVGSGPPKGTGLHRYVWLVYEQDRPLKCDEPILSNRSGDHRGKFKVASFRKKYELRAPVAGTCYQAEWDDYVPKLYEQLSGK

## CCCCCCCCCCCCCCCC(=O)OC[C@H](COP(=O)(O)O[C@@H]1[C@H](O)[C@H](OP(=O)(O)O)[C@@H](O)[C@H](O)[C@H]1O)OC(=O)CCCCCCCCCCCCCCC [PtdIns(3)P]
PfRKIP [1]
  Kd: 109 µM
PfRKIP [2]
  Kd: 15.6 µM
PfRKIP [3]
  Kd: 15.6 µM
PfRKIP [4]
  Kd: 11.5 µM
HsRKIP
  Kd: 43.5 µM
